What all share (type): cell-based
Data set [1] has as its target T1, hPPARδ (Homo sapiens, UniProt Q03181).
T1 construct: expressed in transfected cells; host or cells: CV-1 monkey kidney cells
T1 sequence (Q03181 1-441): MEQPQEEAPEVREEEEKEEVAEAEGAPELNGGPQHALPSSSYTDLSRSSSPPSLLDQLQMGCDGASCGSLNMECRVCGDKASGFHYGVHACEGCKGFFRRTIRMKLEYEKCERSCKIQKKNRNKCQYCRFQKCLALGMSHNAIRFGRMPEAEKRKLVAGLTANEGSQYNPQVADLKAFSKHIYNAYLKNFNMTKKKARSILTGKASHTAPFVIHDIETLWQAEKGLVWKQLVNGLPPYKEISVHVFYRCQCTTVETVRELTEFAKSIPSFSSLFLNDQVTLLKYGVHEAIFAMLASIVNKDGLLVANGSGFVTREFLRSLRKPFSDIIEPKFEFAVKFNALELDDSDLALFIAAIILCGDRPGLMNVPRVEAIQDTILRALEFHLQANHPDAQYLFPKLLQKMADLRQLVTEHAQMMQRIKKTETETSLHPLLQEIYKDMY
Kind of data set: In vitro co-transfection (PPRE-luciferase) assay in CV-1 cells, hPPARδ.

The target in data set [2] is T2, hPPARα (Homo sapiens, UniProt Q07869).
T2 sequence (Q07869 1-468): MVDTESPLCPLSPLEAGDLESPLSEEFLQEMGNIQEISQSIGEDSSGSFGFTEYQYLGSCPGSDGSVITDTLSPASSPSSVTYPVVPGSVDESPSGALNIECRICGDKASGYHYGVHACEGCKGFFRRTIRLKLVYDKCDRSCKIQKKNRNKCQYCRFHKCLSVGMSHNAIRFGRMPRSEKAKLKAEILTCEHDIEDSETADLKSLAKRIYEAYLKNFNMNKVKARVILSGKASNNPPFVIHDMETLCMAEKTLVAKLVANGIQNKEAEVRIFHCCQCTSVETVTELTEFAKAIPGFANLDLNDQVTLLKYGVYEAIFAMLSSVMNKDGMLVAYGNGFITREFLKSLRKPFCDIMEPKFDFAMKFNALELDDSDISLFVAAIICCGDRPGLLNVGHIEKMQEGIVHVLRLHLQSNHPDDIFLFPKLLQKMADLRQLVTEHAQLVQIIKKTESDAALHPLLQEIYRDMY
Description: In vitro co-transfection (PPRE-luciferase) assay in CV-1 cells, hPPARα. The settings on record: 24 h, read-out: Potency (EC50) hPPARα.

The target of data set [3] is T3, hPPARγ (Homo sapiens, UniProt P37231).
T3 sequence (P37231 1-505): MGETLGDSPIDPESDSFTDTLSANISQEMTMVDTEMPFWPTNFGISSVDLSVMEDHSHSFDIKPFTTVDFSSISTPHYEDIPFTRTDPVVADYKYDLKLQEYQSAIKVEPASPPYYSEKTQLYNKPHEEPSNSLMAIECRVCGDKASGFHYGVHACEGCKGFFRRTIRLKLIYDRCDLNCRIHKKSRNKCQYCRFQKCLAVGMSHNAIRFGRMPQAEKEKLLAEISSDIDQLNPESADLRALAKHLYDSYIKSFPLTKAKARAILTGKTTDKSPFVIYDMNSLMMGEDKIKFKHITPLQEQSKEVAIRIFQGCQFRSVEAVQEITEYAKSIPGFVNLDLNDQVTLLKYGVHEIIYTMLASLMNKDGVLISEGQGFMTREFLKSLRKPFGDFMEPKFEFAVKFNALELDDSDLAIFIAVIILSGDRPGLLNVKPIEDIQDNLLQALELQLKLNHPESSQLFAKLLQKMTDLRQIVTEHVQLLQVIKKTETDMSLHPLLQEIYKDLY
Kind of data set: In vitro co-transfection (PPRE-luciferase) assay in CV-1 cells, hPPARγ. The settings on record: 24 h, read-out: Potency (EC50) hPPARγ.

The test system of data set [4] is primary mouse astrocytes. Kind of data set: Cytotoxicity assay (EZ-Cytox) in primary mouse astrocytes. Particulars: up to 30 μM, 24 h.

pEC50: −log10 of the molar value.

What is called pEC50 is the EC50 on a negative log10 scale, so that one unit is a factor of ten. In the case of `Cc1cc([Se]Cc2[se]c(-c3ccc(C(F)(F)F)cc3)nc2C)ccc1OCC(=O)O` [Compound 5b, {2-Methyl-4-[4-methyl-2-(4-trifluoromethyl-phenyl)-selenazol-5-yl-methylselanyl]-phenoxy}-acetic acid], the pEC50 in data set [1] (co-transfection assay, CV-1 cells, 24 h, read-out: Potency (EC50) hPPARδ) is 8.37; in data set [2], less than 5.00; in data set [3], less than 5.00. Further, the “Selectivity index hPPARα/hPPARδ” value in data set [1] (ratio EC50(hPPARα)/EC50(hPPARδ)) is listed as greater than 2300. For the same compound, the “Selectivity index hPPARγ/hPPARδ” value in data set [1] (ratio EC50(hPPARγ)/EC50(hPPARδ)) is recorded as greater than 2300.

As for `Cc1cc(SCc2sc(-c3ccc(C(F)(F)F)cc3)nc2C)ccc1OCC(=O)O` [GW501516, reference compound], in data set [4], the “Cytotoxicity in primary astrocytes” value is given as “no cytotoxicity”.
